Target: T1, acetylcholine muscarinic M1 receptor (Homo sapiens, UniProt P11229)
T1 construct: expressed in transfected cells; host or cells: CHOnfat (CHO cells; also called CHOK1/hM1)
T1 sequence (P11229 1-460): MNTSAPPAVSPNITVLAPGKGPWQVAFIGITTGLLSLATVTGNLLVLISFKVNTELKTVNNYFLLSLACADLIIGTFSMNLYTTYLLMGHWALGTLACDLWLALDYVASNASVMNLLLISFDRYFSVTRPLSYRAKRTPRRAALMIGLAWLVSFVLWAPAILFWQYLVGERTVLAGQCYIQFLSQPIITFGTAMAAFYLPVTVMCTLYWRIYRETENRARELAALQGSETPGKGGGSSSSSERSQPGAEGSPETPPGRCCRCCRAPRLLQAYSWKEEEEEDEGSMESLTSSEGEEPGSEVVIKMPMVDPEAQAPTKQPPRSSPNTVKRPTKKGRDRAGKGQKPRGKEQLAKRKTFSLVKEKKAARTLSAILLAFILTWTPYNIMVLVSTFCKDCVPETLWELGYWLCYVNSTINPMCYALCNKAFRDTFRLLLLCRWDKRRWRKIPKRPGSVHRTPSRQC
Test: Muscarinic M1 FLIPR intracellular calcium assay for positive allosteric modulators
Type: cell-based
Details: IP = inflection point calculated from FLIPR values; CHOnfat/hM1 cells; 4 min preincubation, then EC20 acetylcholine (3 nM final); read-out: IP Value
Experimental: The assay studies the effect of one or several concentrations of test compounds on basal or acetylcholine-stimulated Ca^2+ levels using FLIPR.
Compounds are prepared and subjected to a preincubation period of 4 min. Thereafter, a single EC20 concentration of acetylcholine is added to each well (3 nM final). The intracellular Ca^2+ level of each sample is measured and compared to an acetylcholine control to determine any modulatory activity.
Cells: CHOnfat/hM1, hM2, hM3 or hM4 cells are plated 24 hr before the assay at a density of 18,000 cells/well (100 μL) in a 384 well plate. CHOnfat/hM1 and CHOnfat/hM3 Growth Medium: 90% DMEM (Hi Glucose); 10% HI FBS; 2 mM L-glutamine; 0.1 mM NEAA; Pen-Strep; and 1 mg/ml Geneticin, are added. For M2Gqi5CHOnfat and M4Gqi5CHOnfat cells, an additional 600 ug/ml hygromycin is added.
Equipment: 384 well plate, 120 μL addition plate; 96-well Whatman 2 ml Uniplate Incubator, 37° C., 5% CO2; Skatron EMBLA-384 Plate Washer; Multimek Pipetting System; Genesis Freedom 200 System; Mosquito System; Temo Nanolitre Pipetting System; and FLIPR^384 Fluorometric Imaging Plate Reader System are used.
Buffers. Assay Buffer: Hanks Balanced Salt Solution, with 20 mM Hepes, 2.5 mM Probenecid (Sigma P-8761) first dissolved in 1 N NaOH, 1% Bovine Serum Albumin (Sigma A-9647). Dye Loading Buffer: Assay Buffer plus 1% Fetal Bovine Serum and Fluo-4AM/Pluronic Acid Mixture. 2 mM Fluo-4AM ester stock in DMSO (Molecular Probes F-14202) Concentration of 2 μM in buffer for a final concentration of 1 μM in Assay. 20% Pluronic Acid Solution stock, with concentration of 0.04% in Buffer, 0.02% in Assay.
65 μL of 2 mM Fluo-4AM are mixed with 130 μL of 20% Pluronic Acid. The resulting solution and 650 μL FBS is added to the assay buffer for a total volume of 65 mL. Positive Controls: 4-Br-A23187: 10 mM in DMSO; final concentration 10 μM. Acetylcholine: 10 mM in water, working stock at both 20 μM and 30 μM in assay buffer, final concentration of 10 μM. This is used to check the maximum stimulation of the CHOK1/hM1 cells. 20 μM (2×) acetylcholine is added in the preincubation part of the assay, and the 30 μM (3×) stock is added in the second part. (EC20)Acetylcholine: 10 mM in water, working stock of 9 nM (3×), and final concentration in assay is 3 nM. This is used after the preincubation with test compounds. Addition of the EC20 Acetylcholine to each well with a test compound will ascertain any modulator activity. 24 wells contain 3 nM Acetylcholine alone as a control.
Determining Activity of Putative Compounds:
Screening Plate Compounds are titrated in 96-well plates (columns 2-11), 100% DMSO, started at a concentration of 15 mM (150× stock concentration), and 3-fold serial dilutions using Genesis Freedom200 System. Four 96-well plates are combined into a 384-well plate using Mosquito Nanolitre Pipetting System by transferring 1 μl of serial diluted compounds to each well, and 1 mM acetylcholine (100× stock concentration) were added as a control. Using Temo, 49 μl assay buffer is added to each well of the 384-well plate right before assay.
In a 96-well Whatman 2 ml Uniplate, 9 nM Acetylcholine (3×) is pipetted into wells corresponding to the screening compounds, and into control wells. The 30 μM acetylcholine control (3×) is added into control wells, and the 3× agonist plate is transferred into a 384 well plate.
Cells are washed three times with 100 μL of buffer, leaving 30 μL of buffer in each well. Using Multimek, 30 μL of Dye Loading Buffer is added into each well and incubated at 37° C., 5% CO2 for up to one hr.
After 60 min, the cells are washed three times with 100 μL of buffer, leaving 30 μL of buffer in each well. The cell plate, screening plate, and agonist addition plates are placed on the platform in the FLIPR and the door closed. A signal test to check background fluorescence and basal fluorescence signal is performed. Laser intensity is adjusted if necessary. […]

EC50 [nM] | Compound
411 | COc1cc(Cc2cc(C(=O)N[C@H]3CCOC[C@@H]3O)nc3c(F)cccc23)cc[n+]1[O-] [Example 23, 8-Fluoro-N-[(3R,4S)-3-hydroxytetrahydro-2H-pyran-4-yl]-4-[(2-methoxy-1-oxidopyridin-4-yl)methyl]quinoline-2-carboxamide]
33 | COc1ccc(Cc2cc(C(=O)N[C@H]3CCOC[C@@H]3O)nc3c(F)ccc(F)c23)cn1 [Example 24, 5,8-Difluoro-N-[(3R,4S)-3-hydroxytetrahydro-2H-pyran-4-yl]-4-[(6-methoxypyridin-3-yl)methyl]quinoline-2-carboxamide]
